In patent US8017391B2, “Human liver cancer cell line” (Univesity of Florida Research Foundation, Inc., priority 2006, dated 2011):

System: LH86 cells or Huh7.5 cells
Test: Tumor growth of implanted HCV susceptible cell lines in immune deficient mice
Type: in vivo
Settings: injection of human EGF to NOD-SCID mice bearing subcutaneous tumor cells
Method: To establish a mouse model that is capable of supporting the whole viral life cycle, the present inventors implanted HCV susceptible cell lines (LH86 cells of the present invention or Huh7.5 cells) to immune deficient mice (NOD-SCID). When 1×10^6 cells were injected subcutaneously into the mice, visible tumor (0.5 cm) formed in one week, and the tumor continued to grow to 5 cm in size in 6 weeks. For LH86 cells, 5×10^6 tumor cells must be injected to achieve a similar tumor growth pattern.

**Q.** How did the tumor growth rate turn out when “human EGF: human EGF injected to mice (NSDSECPLSHDGYCLHDGVCMYIEALDKYACNCVVGYIGERCQYRDLKWWELR; UniProt P01133 971-1023, looked up)” was run?
**A.** Its tumor growth rate is “significantly accelerate”.
